{"source": "patent US12171734B2", "about": "“Pathogenic bacteria” (Sporegen Limited, priority 2018, dated 2024)", "tested_on": "multi-drug resistant M. tuberculosis (Peru isolate)", "experiment": "microbe, parasite or virus in culture", "type": "cell-based", "conditions": "Mycobacterium tuberculosis, 240 h, read-out: MIC, MDR-TB Peru isolate", "data": [{"smiles": "NNC(=O)c1ccncc1", "note": "[Isoniazid]", "values": [{"measurement": "MIC", "value": "> 4", "unit": "µg/mL"}]}, {"smiles": "CO[C@H]1/C=C/O[C@@]2(C)Oc3c(C)c(O)c4c(O)c(c(/C=N/N5CCN(C)CC5)c(O)c4c3C2=O)NC(=O)/C(C)=C\\C=C\\[C@H](C)[C@H](O)[C@@H](C)[C@@H](O)[C@@H](C)[C@H](OC(C)=O)[C@@H]1C", "note": "[Rifampicin]", "values": [{"measurement": "MIC", "value": "> 4", "unit": "µg/mL"}]}]}
